Data reported in patent EP0012729A1, “Therapeutic compositions containing as active compound a substituted acetic acid or its salt” ("IBIS" ISTITUTO BIOCHIMICO SPERIMENTALE S.p.A., priority 1978, dated 1980).

Columns and labels:
rat = assay: Prolonged administration for 180 consecutive days, tolerability; format: in vivo; conditions: 50 mg/kg/die for 180 consecutive days
[1] = Acute toxicity (DL50) in the rat; conditions: in vivo
Description: The determination in the rat gave the following values: • DL50 by oral administration = 1720 (1520-1921) mg/kg • DL50 by i.p. administration = 1339 (1270-1744) mg/kg

Wistar rats = assay: Choleretic activity in the rat, bile fistula method; format: in vivo; conditions: for ml of bile flow ± s.e.: second series
Description: It is known that the primary effect of a choleretic agent is to increase the bile flow and the quantity of solid substances excreted with the bile. A good choleretic must provide this effect in a sufficiently intense and prolonged manner. In addition, as in the case of all drugs, it must have low acute toxicity and good general tolerability, but in particular must be free from toxic effects on the organ on which it is required to act, i.e. the liver, whether this is in a normal or pathological state. The analysis of the new product in comparison with the best known products for the same therapeutic use has therefore been focused on these aspects. The choleretic activity of the new product has been determined in the rat by using the bile fistula method. Wistar rats of both sexes and having a weight of between 180 and 240 g were used.
The animals, which were kept fasting for 12 hours but with free access to water, were narcotised by ethyl urethane in a dose of 1 g/kg by intra peritoneal or intramuscular injection.
After binding the animals to the retention bed, a median laparatomy was carried out, and when the bile duct had been isolated a cannula needle was inserted into it. A polythene tube was then inserted into those ani mals which were to receive the products intraduodenally, after which a su ture was carried out on the abdominal wall, and the bile was allowed to discharge for 30 minutes after inserting the cannula in the bile duct, so as to allow the discharge to become normal. The bile was then collec ted for one hour.
Having determined the volume of bile discharged during this first hour of collection (base volume), the products under examination were administered at the predetermined doses and by the predetermined methods. The bile excreted by the individual animals was then collected over each hour for a further six hours.
During the experiments, the animals were kept at ambient temperature of about 22°C, and at regular intervals of two hours received 10 ml/kg of physiological solution s.c.
The liquids were administered at a temperature of 37°C.
The bile flow and cholesterol excretion were determined on those bile fractions excreted by the animals over each hour starting from the base hour until the end of the experiment
The dry residue (R.So) was determined on the bile fraction excreted during the base hour and on the total bile fractions excreted during the sub sequent hours. For practical reasons, the determination of the dry residue and of the cholesterol (carried out by the Sperry & Webb method) were carried out on the pool of bile excreted by the entire group of animals subjected to the same treatment instead of on the bile fractions excreted by the individual animals (which was sometimes insufficient for determining the cholesterol).
In compiling the graphs, the differences between the choleresis in the treated animals and that in the controls was calculated over the considered time intervals, and expressed as a percentage of the base choleresis. For this calculation, the following formula was used: [formula] where Cn and C' represent the choleresis (in ml/kg/h for the bile flow, and in mg/kg/h for the dry residue) determined over the considered time interval for the group of treated animals and the group of controls respectively. Cb and C'b represent the base choleresis in the group of treated animals and group of controls respectively.
This index was calculated as the time for halving the maximum choleresis increase recorded under their effect.

[2] = Acute toxicity (DL50) in mus musculus; conditions: in vivo
Description: The DL50 for the α-methyl-α-(3,4-dihydro-1-naphtyl)acetic acid (1.620) determined in the mus musculus had the following values: • DL50 by oral administration = 1663 (1451-1905) mg/kg • DL50 by i.^p. administration = 1383 (1226-1559) mg/kg

[3] = ip, read-out: DL50 by i.p. administration
[4] = oral, read-out: DL50 by oral administration

CC(C(=O)O)C1=CCCc2ccccc21 (stereo not drawn) [1.620, α-methyl-α-(3,4-dihydro-1-naphthyl)-acetic acid]
Tolerability on prolonged administration (rat): well tolerated
LD50 [1, 3]: 1340 mg/kg
LD50 [1, 4]: 1720 mg/kg
Flow (Wistar rats; 25 mg/kg i.d., 0 (base hour)): 2,66±0,16 ml/kg/h
Flow (Wistar rats; 25 mg/kg i.d., 1 h): 4,24±0,25 ml/kg/h
Flow (Wistar rats; 25 mg/kg i.d., 2 h): 3,21±0,10 ml/kg/h
Flow (Wistar rats; 25 mg/kg i.d., 3 h): 2,89±0,10 ml/kg/h
Flow (Wistar rats; 25 mg/kg i.d., 4 h): 2,44±0,15 ml/kg/h
Flow (Wistar rats; 25 mg/kg i.d., 5 h): 2,20±0,14 ml/kg/h
Flow (Wistar rats; 25 mg/kg i.d., 6 h): 1,68±0,05 ml/kg/h
Flow (Wistar rats; 25 mg/kg p.o., 0 (base hour)): 3,05±0,33 ml/kg/h
Flow (Wistar rats; 25 mg/kg p.o., 1h): 3,89±0,47 ml/kg/h
Flow (Wistar rats; 25 mg/kg p.o., 2h): 3,13±0,24 ml/kg/h
Flow (Wistar rats; 25 mg/kg p.o., 3h): 2,84±0,21 ml/kg/h
Flow (Wistar rats; 25 mg/kg p.o., 4h): 2,35±0,19 ml/kg/h
Flow (Wistar rats; 25 mg/kg p.o., 5h): 2,05±0,21 ml/kg/h
Flow (Wistar rats; 25 mg/kg p.o., 6h): 1,87±0,39 ml/kg/h
Flow (Wistar rats; 50 mg/kg i.d., 0 (base hour)): 2,04±0,11 ml/kg/h
Flow (Wistar rats; 50 mg/kg i.d., 1 h): 3,90±0,28 ml/kg/h
Flow (Wistar rats; 50 mg/kg i.d., 2 h): 3,57±0,16 ml/kg/h
Flow (Wistar rats; 50 mg/kg i.d., 3 h): 2,69±0,09 ml/kg/h
Flow (Wistar rats; 50 mg/kg i.d., 4 h): 2,20±0,07 ml/kg/h
Flow (Wistar rats; 50 mg/kg i.d., 5 h): 2,00±0,10 ml/kg/h
Flow (Wistar rats; 50 mg/kg i.d., 6 h): 1,63±0,08 ml/kg/h
Flow (Wistar rats; 50 mg/kg p.o., 0 (base hour)): 2,76±0,09 ml/kg/h
Flow (Wistar rats; 50 mg/kg p.o., 1h): 4,90±0,16 ml/kg/h
Flow (Wistar rats; 50 mg/kg p.o., 2h): 3,74±0,13 ml/kg/h
Flow (Wistar rats; 50 mg/kg p.o., 3h): 3,34±0,13 ml/kg/h
Flow (Wistar rats; 50 mg/kg p.o., 4h): 2,73±0,07 ml/kg/h
Flow (Wistar rats; 50 mg/kg p.o., 5h): 2,60±0,08 ml/kg/h
Flow (Wistar rats; 50 mg/kg p.o., 6h): 2,25±0,09 ml/kg/h
Flow (Wistar rats; 100 mg/kg i.d., 0 (base hour)): 2,53±0,09 ml/kg/h
Flow (Wistar rats; 100 mg/kg i.d., 1 h): 6,61±0,27 ml/kg/h
Flow (Wistar rats; 100 mg/kg i.d., 2 h): 5,94±0,23 ml/kg/h
Flow (Wistar rats; 100 mg/kg i.d., 3 h): 4,12±0,14 ml/kg/h
Flow (Wistar rats; 100 mg/kg i.d., 4 h): 3,23±0,07 ml/kg/h
Flow (Wistar rats; 100 mg/kg i.d., 5 h): 2,74±0,06 ml/kg/h
Flow (Wistar rats; 100 mg/kg i.d., 6 h): 2,23±0,06 ml/kg/h
Flow (Wistar rats; 100 mg/kg p.o., 0 (base hour)): 2,40±0,23 ml/kg/h
Flow (Wistar rats; 100 mg/kg p.o., 1h): 4,44±0,28 ml/kg/h
Flow (Wistar rats; 100 mg/kg p.o., 2h): 4,95±0,39 ml/kg/h
Flow (Wistar rats; 100 mg/kg p.o., 3h): 4,10±0,32 ml/kg/h
Flow (Wistar rats; 100 mg/kg p.o., 4h): 3,10±0,31 ml/kg/h
Flow (Wistar rats; 100 mg/kg p.o., 5h): 2,79±0,23 ml/kg/h
Flow (Wistar rats; 100 mg/kg p.o., 6h): 2,33±0.25 ml/kg/h
Peak choleresis time of appearance (Wistar rats; 200 mg/kg p.o. (dose given for 1620 only)): 2nd hour
Peak choleresis % increase (Wistar rats; 200 mg/kg p.o. (dose given for 1620 only), increase over controls as percentage of base choleresis): 135%
Duration index (Wistar rats; 200 mg/kg p.o. (dose given for 1620 only), time for halving the maximum choleresis increase): 240'
Flow (Wistar rats; 200 mg/kg p.o., 0 (base hour)): 2,46±0,12 ml/kg/h
Flow (Wistar rats; 200 mg/kg p.o., 1h): 5,53±0,30 ml/kg/h
Flow (Wistar rats; 200 mg/kg p.o., 2h): 5,78±0,29 ml/kg/h
Flow (Wistar rats; 200 mg/kg p.o., 3h): 5,02±0,34 ml/kg/h
Flow (Wistar rats; 200 mg/kg p.o., 4h): 4,77±0,57 ml/kg/h
Flow (Wistar rats; 200 mg/kg p.o., 5h): 4,19±0,25 ml/kg/h
Flow (Wistar rats; 200 mg/kg p.o., 6h): 3,39±0,14 ml/kg/h
ml of bile flow ± s.e. (Wistar rats; oral by gastric probe 25 mg/kg, 0 (base values)): 2,6±0,20 ml
ml of bile flow ± s.e. (Wistar rats; oral by gastric probe 25 mg/kg, 1 h): 3,2±0,14 ml
ml of bile flow ± s.e. (Wistar rats; oral by gastric probe 25 mg/kg, 2 h): 2,7±0,10 ml
ml of bile flow ± s.e. (Wistar rats; oral by gastric probe 25 mg/kg, 3 h): 2,6±0,21 ml
ml of bile flow ± s.e. (Wistar rats; oral by gastric probe 25 mg/kg, 4 h): 1,9±0,11 ml
ml of bile flow ± s.e. (Wistar rats; oral by gastric probe 25 mg/kg, 5 h): 1,6±0,20 ml
ml of bile flow ± s.e. (Wistar rats; oral by gastric probe 25 mg/kg, 6 h): 1,6±0,21 ml
ml of bile flow ± s.e. (Wistar rats; oral by gastric probe 50 mg/kg, 0 (base values)): 2,8±0,19 ml
ml of bile flow ± s.e. (Wistar rats; oral by gastric probe 50 mg/kg, 1 h): 3,7±0,31 ml
ml of bile flow ± s.e. (Wistar rats; oral by gastric probe 50 mg/kg, 2 h): 3,4±0,22 ml
ml of bile flow ± s.e. (Wistar rats; oral by gastric probe 50 mg/kg, 3 h): 3,2±0,19 ml
ml of bile flow ± s.e. (Wistar rats; oral by gastric probe 50 mg/kg, 4 h): 3,0±0,18 ml
ml of bile flow ± s.e. (Wistar rats; oral by gastric probe 50 mg/kg, 5 h): 2,8±0,14 ml
ml of bile flow ± s.e. (Wistar rats; oral by gastric probe 50 mg/kg, 6 h): 2,2±0,18 ml
ml of bile flow ± s.e. (Wistar rats; oral by gastric probe 100 mg/kg, 0 (base values)): 2,5±0,16 ml
ml of bile flow ± s.e. (Wistar rats; oral by gastric probe 100 mg/kg, 1 h): 4,8±0,26 ml
ml of bile flow ± s.e. (Wistar rats; oral by gastric probe 100 mg/kg, 2 h): 3,7±0,31 ml
ml of bile flow ± s.e. (Wistar rats; oral by gastric probe 100 mg/kg, 3 h): 3,5±0,20 ml
ml of bile flow ± s.e. (Wistar rats; oral by gastric probe 100 mg/kg, 4 h): 3,2±0,32 ml
ml of bile flow ± s.e. (Wistar rats; oral by gastric probe 100 mg/kg, 5 h): 2,9±0,22 ml
ml of bile flow ± s.e. (Wistar rats; oral by gastric probe 100 mg/kg, 6 h): 2,7±0,23 ml
LD50 [2, 3]: 1380 mg/kg
LD50 [2, 4]: 1660 mg/kg
